For one molecule, Ki results are on record in article PMC3156297 (2011).

The experiment concerns the target T1, soluble epoxide hydrolase (sEH) (Homo sapiens, UniProt P34913).
T1 sequence (P34913 1-555): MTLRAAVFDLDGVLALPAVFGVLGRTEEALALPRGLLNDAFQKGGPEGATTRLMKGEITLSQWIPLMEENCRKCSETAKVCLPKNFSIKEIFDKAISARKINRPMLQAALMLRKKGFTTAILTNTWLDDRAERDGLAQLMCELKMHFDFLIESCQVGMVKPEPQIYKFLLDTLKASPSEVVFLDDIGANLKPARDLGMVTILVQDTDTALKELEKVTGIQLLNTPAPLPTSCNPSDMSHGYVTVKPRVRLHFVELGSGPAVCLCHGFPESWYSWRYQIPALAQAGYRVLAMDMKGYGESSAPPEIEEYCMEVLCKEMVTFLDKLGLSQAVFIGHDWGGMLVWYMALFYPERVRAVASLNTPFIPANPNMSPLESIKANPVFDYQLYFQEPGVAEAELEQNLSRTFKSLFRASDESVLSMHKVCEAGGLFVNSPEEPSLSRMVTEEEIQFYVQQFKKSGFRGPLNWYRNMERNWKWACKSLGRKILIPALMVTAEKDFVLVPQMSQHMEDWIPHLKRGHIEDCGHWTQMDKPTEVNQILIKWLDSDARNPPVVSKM
The experiment in a line: recombinant enzyme inhibition. The experiment is classed as biochemical.

As a reminder, the Ki is the dissociation constant of the complex between target and ligand, obtained from inhibition or displacement.

With `O=C(Nc1ccc(Cl)cc1)Nc1ccc(Cl)c(Cl)c1` [TCC, 3,4,4′-trichlorocarbanilide], the Ki is 96 nM.
